Molecular target: T1, hROCK-2 (Homo sapiens, UniProt O75116)
T1 construct: purchased Upstate
Assay: ROCK-2 Assay (33P-ATP FlashPlate kinase assay, biotinylated S6 peptide)
Format: biochemical
Conditions: hROCK-2 0.8 nM, 5 μM ATP, 1.5 μM biotinylated S6 peptide, room temperature, 60 min
Protocol: The reaction is stopped by addition of 150 μl of 0.1 M EDTA in Dulbecco's PBS. 170 μl from each well are loaded onto a FlashPlate (PerkinElmer) and incubated at room temperature for 30 min.

T1 sequence (O75116 whole entry): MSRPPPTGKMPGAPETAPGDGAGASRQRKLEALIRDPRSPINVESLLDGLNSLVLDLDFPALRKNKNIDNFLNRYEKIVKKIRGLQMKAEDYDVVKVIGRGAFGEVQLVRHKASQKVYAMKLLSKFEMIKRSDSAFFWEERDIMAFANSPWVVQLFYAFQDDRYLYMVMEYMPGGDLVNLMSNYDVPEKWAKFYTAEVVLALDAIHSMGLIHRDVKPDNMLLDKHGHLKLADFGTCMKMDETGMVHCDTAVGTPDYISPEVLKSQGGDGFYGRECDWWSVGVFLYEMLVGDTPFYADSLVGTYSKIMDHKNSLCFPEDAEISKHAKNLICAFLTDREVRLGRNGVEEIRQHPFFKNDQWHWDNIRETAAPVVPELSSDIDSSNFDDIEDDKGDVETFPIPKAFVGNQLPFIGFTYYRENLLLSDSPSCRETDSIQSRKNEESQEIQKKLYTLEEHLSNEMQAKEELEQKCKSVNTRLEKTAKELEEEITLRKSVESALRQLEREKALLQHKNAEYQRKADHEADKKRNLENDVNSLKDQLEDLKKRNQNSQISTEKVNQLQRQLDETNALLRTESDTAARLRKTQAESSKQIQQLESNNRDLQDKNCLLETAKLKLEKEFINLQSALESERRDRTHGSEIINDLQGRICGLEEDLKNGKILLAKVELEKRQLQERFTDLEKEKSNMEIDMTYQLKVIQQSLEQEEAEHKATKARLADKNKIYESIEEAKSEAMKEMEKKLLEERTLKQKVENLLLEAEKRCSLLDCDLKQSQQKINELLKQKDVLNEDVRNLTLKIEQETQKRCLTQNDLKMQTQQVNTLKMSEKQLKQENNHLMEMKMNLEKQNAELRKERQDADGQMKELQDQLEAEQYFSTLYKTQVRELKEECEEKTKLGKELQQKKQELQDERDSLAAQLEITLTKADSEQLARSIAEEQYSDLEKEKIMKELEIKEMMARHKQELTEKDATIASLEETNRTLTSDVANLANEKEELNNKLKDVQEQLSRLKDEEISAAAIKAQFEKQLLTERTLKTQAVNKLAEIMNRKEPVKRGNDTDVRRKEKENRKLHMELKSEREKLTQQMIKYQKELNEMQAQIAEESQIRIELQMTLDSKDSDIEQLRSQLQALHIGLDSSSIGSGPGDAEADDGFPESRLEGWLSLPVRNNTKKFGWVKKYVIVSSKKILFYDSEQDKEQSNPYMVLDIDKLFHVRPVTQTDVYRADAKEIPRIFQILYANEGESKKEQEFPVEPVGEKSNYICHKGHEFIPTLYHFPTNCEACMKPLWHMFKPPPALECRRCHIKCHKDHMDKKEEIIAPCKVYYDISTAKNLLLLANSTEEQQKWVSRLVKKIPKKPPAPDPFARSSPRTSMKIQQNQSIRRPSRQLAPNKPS

Row | SMILES | Ki
1 | COc1ccc(C(C)NC(=O)c2ccc(-c3ccncc3)cc2)c2ccccc12 (stereo not shown) [Example 189, N-[1-(4-methoxy-naphthalen-1-yl)-ethyl]-4-pyridin-4-yl-benzamide] | 50 to 500 nM
2 | COc1cccc([C@H](C)NC(=O)c2ccc(-c3ccncc3C)cc2)c1 [Example 179, N—[(S)-1-(3-methoxy-phenyl)-ethyl]-4-(3-methyl-pyridin-4-yl)-benzamide] | 50 to 500 nM
3 | COc1ccc(C(CN)NC(=O)c2ccc(-c3ccncc3)cc2)cc1 (stereo not shown) [Example 44, N-[2-amino-1-(4-methoxyphenyl)ethyl]-4-pyridin-4-ylbenzamide] | 50 to 500 nM
4 | Cc1cnccc1-c1ccc(C(=O)NC2CCCc3ccccc32)cc1 (stereo not shown) [Example 160, 4-(3-methyl-pyridin-4-yl)-N-(1,2,3,4-tetrahydro-naphthalen-1-yl)-benzamide] | 50 to 500 nM
5 | C[C@@H](NC(=O)c1ccc(-c2ccncc2)cc1)c1ccccc1C(F)(F)F [Example 86, 4-pyridin-4-yl-N-{(1R)-1-[2-(trifluoromethyl)phenyl]ethyl}benzamide] | 50 to 500 nM
6 | COc1cccc([C@@H](C)NC(=O)c2ccc(-c3ccncc3C)cc2)c1 [Example 101, N—[(R)-1-(3-Methoxy-phenyl)-ethyl]-4-(3-methyl-pyridin-4-yl)-benzamide] | < 50 nM
7 | CC(NC(=O)c1ccc(-c2ccncc2)cc1)c1cccs1 (stereo not shown) [Example 72, 4-pyridin-4-yl-N—O-(2-thienyl)ethypenzamide] | < 50 nM
8 | CCOc1cc(-c2ccncc2)ccc1C(=O)N[C@H](C)c1cccc(OC)c1 [Example 249, 2-ethoxy-N—[(R)-1-(3-methoxy-phenyl)-ethyl]-4-pyridin-4-yl-benzamide] | < 50 nM
9 | COC[C@@H](NC(=O)c1ccc(-c2ccncc2)cc1)c1ccccc1 [Example 188, N—((S)-2-methoxy-1-phenyl-ethyl)-4-pyridin-4-yl-benzamide] | < 50 nM
10 | COc1cc(-c2ccncc2)ccc1C(=O)NC(CO)c1cccc2ccccc12 (stereo not shown) [Example 140, N-(2-hydroxy-1-naphthalen-1-yl-ethyl)-2-methoxy-4-pyridin-4-ylbenzamide] | < 50 nM
11 | O=C(N[C@H](CO)Cc1ccccc1)c1ccc(-c2ccncc2)cc1 [Example 7, N-[(1S)-1-benzyl-2-hydroxyethyl]-4-pyridin-4-ylbenzamide] | < 50 nM
12 | COc1cc(-c2ccncc2)ccc1C(=O)N[C@H](C)c1cccc(C(F)(F)F)c1 [Example 132, 2-methoxy-4-pyridin-4-yl-N—[(R)-1-(3-trifluoromethyl-phenyl)-ethyl]-benzamide] | < 50 nM
13 | COc1cccc([C@@H](C)NC(=O)c2ccc(-c3ccncc3)cc2OC)c1 [Example 103, 2-methoxy-N—[(R)-1-(3-methoxy-phenyl)-ethyl]-4-pyridin-4-yl-benzamide] | < 50 nM
14 | CC(C)COc1cccc(C(C)NC(=O)c2ccc(-c3ccncc3)cc2)c1 (stereo not shown) [Example 153, N-[1-(3-isobutoxy-phenyl)-ethyl]-4-pyridin-4-yl-benzamide] | < 50 nM
15 | COc1cccc([C@@H](C)NC(=O)c2ccc(-c3ccncc3)cc2Cl)c1 [Example 243, 2-chloro-N—[(R)-1-(3-methoxy-phenyl)-ethyl]-4-pyridin-4-yl-benzamide] | < 50 nM
16 | Cc1cnccc1-c1ccc(C(=O)NC(CO)c2cccc3ccccc23)cc1 (stereo not shown) [Example 172, N-(2-hydroxy-1-naphthalen-1-yl-ethyl)-4-(3-methyl-pyridin-4-yl)-benzamide] | < 50 nM
17 | O=C(NC(Cc1ccccc1)c1ccccc1)c1ccc(-c2ccncc2)cc1 (stereo not shown) [Example 48, N-(1,2-diphenylethyl)-4-pyridin-4-ylbenzamide] | 50 to 500 nM
18 | CC(C)Oc1cccc(C(C)NC(=O)c2ccc(-c3ccncc3)cc2)c1 (stereo not shown) [Example 152, N-[1-(3-isopropoxy-phenyl)-ethyl]-4-pyridin-4-yl-benzamide] | < 50 nM
19 | COc1cccc([C@@H](C)NC(=O)c2ccc(-c3cc(F)ncc3C)cc2)c1 [Example 248, 4-(2-fluoro-5-methyl-pyridin-4-yl)-N—[(R)-1-(3-methoxy-phenyl)-ethyl]-benzamide] | < 50 nM

Row | SMILES | Ki
20 | O=C(N[C@H](CCO)c1ccccc1)c1ccc(-c2ccncc2)cc1 [Example 2, N-[(1R)-3-hydroxy-1-phenylpropyl]-4-pyridin-4-ylbenzamide] | < 50 nM
21 | Cc1cnccc1-c1ccc(C(=O)N[C@H](C)c2ccc(Cl)cc2)cc1 [Example 168, N—[(R)-1-(4-chloro-phenyl)-ethyl]-4-(3-methyl-pyridin-4-yl)-benzamide] | 50 to 500 nM
22 | Cc1cnccc1-c1ccc(C(=O)N[C@H](C)c2cccc3ccccc23)cc1 [Example 159, 4-(3-methyl-pyridin-4-yl)-N—((R)-1-naphthalen-1-yl-ethyl)-benzamide] | < 50 nM
23 | CC(NC(=O)c1ccc(-c2ccncc2)cc1)c1cccc(OCc2ccccc2)c1 (stereo not shown) [Example 151, N-[1-(3-benzyloxy-phenyl)-ethyl]-4-pyridin-4-yl-benzamide] | < 50 nM
24 | CC(NC(=O)c1ccc(-c2ccncc2)cc1)c1ccccn1 (stereo not shown) [Example 76, 4-pyridin-4-yl-N-(1-pyridin-2-ylethyl)benzamide] | 50 to 500 nM
25 | Cc1cnccc1-c1ccc(C(=O)N[C@H](C)c2ccc(F)cc2)cc1 [Example 180, N—[(R)-1-(4-fluoro-phenyl)-ethyl]-4-(3-methyl-pyridin-4-yl)-benzamide] | < 50 nM
26 | COc1cccc([C@@H](C)NC(=O)c2ccc(-c3ccncc3F)cc2C)c1 [Example 246, 4-(3-fluoro-pyridin-4-yl)-N—[(R)-1-(3-methoxy-phenyl)-ethyl]-2-methyl-benzamide] | < 50 nM
27 | O=C(NC(CO)c1cccnc1)c1ccc(-c2ccncc2)cc1 (stereo not shown) [Example 39, N-(2-hydroxy-1-pyridin-3-ylethyl)-4-pyridin-4-ylbenzamide] | 50 to 500 nM
28 | COc1cc(-c2ccncc2)ccc1C(=O)N[C@H](CCO)c1ccccc1 [Example 94, N—((R)-3-hydroxy-1-phenyl-propyl)-2-methoxy-4-pyridin-4-yl-benzamide] | < 50 nM
29 | O=C(N[C@@H](Cc1ccccc1)CN1CCCC1)c1ccc(-c2ccncc2)cc1 [Example 28, N-[(1S)-1-benzyl-2-pyrrolidin-1-ylethyl]-4-pyridin-4-ylbenzamide] | < 50 nM
30 | CN(C)CC(NC(=O)c1ccc(-c2ccncc2)cc1)c1ccccc1 (stereo not shown) [Example 30, N-[2-(dimethylamino)-1-phenylethyl]-4-pyridin-4-ylbenzamide] | < 50 nM
31 | COc1cc(-c2ccncc2)ccc1C(=O)NC(CO)c1cc(Cl)cc(Cl)c1 (stereo not shown) [Example 135, N-[1-(3,5-dichloro-phenyl)-2-hydroxy-ethyl]-2-methoxy-4-pyridin-4-ylbenzamide] | < 50 nM
32 | C[C@@H](NC(=O)c1ccc(-c2ccncc2)c(F)c1)c1cccc2ccccc12 [Example 217, 3-fluoro-N—((R)-1-naphthalen-1-yl-ethyl)-4-pyridin-4-yl-benzamide] | < 50 nM
33 | Cc1ccc([C@@H](C)NC(=O)c2ccc(-c3ccncc3)cc2)cc1 [Example 82, N-[(1R)-1-(4-methylphenyl)ethyl]-4-pyridin-4-ylbenzamide] | 50 to 500 nM
34 | COc1cccc(C(CN2CCCC2)NC(=O)c2ccc(-c3ccncc3)cc2)c1 (stereo not shown) [Example 149, N-[1-(3-methoxy-phenyl)-2-pyrrolidin-1-yl-ethyl]-4-pyridin-4-yl-benzamide] | < 50 nM
35 | C[C@@H](NC(=O)c1ccc(-c2ccncc2)cc1Cl)c1cccc2ccccc12 [Example 192, 2-chloro-N—((R)-1-naphthalen-1-yl-ethyl)-4-pyridin-4-yl-benzamide] | < 50 nM
36 | COc1cccc([C@@H](C)NC(=O)c2ccc(-c3ccncc3)c(Cl)c2)c1 [Example 156, 3-Chloro-N—[(R)-1-(3-methoxy-phenyl)-ethyl]-4-pyridin-4-yl-benzamide] | < 50 nM
37 | CC(NC(=O)c1ccc(-c2ccncc2)cc1)c1cccnc1 (stereo not shown) [Example 79, 4-pyridin-4-yl-N-(1-pyridin-3-ylethyl)benzamide] | 50 to 500 nM

From US20150105386A1, “4-(4-PYRIDINYL)-BENZAMIDES AND THEIR USE AS ROCK ACTIVITY MODULATORS” (AbbVie Deutschland GmbH & Co KG, priority 2007, published 2015)
